Measurements reported in patent US20170151351A1, “Gd-ENCAPSULATED CARBON DOTS AND METHODS OF MAKING AND USING THEREOF” (University of Georgia Research Foundation, Inc., priority 2015, published 2017).

Columns and labels:
[1] = test system: U87MG (human glioma) cells; experiment: MTT cytotoxicity assay; format: cell-based; conditions: in the presence of 2.5 mM Ca(II)
Experimental: The cytotoxicity of Gd@C-dots was evaluated with U87MG (human glioma) cells using 3-(4, 5-dimethylthiazolyl-2)-2,5-diphenyltetrazolium bromide (MTT) assays. 2.5 mM Ca(II) was added into the incubation medium; while posing no direct toxicities to cells, such a high concentration of calcium can cause transmetallation to Gd complexes, leading to liberation of free Gd (Corot, C., et al., J. Magn. Reson. Imaging 1998, 8:695). […] The low toxicity was again attributed to the great resistance of Gd@C-dots against biodegradation and transmetallation.
c(RGDyK) affords strong binding affinity toward integrin αvβ3, a cancer biomarker that is seen overexpressed on neoplastic blood vessels and in many types of cancer cells. So the resulting conjugates (hereafter designated as RGD-Gd@C-dots) and unmodified Gd@C-dots were incubated with U87MG cells and imaged under a fluorescence microscope (ex/em: 360/460 nm). Specifically, U87MG cells were cultured in DMEM supplemented with 2 mM L-glutamine, 1.5 g/L sodium bicarbonate, 0.1 mM nonessential amino acids, 1.0 mM sodium pyruvate, and 10% fetal bovine serum at 37° C. in a humidified atmosphere with 5% CO2. 10^5 U87MG cells were seeded in 96-well plates (1×10^4 cells per well) 24 h prior to the experiments. […] The slides were mounted and imaged under an Olympus X71 fluorescence microscope.

[2] = at 7T, literature comparison; cited from earlier work
[3] = test system: U87MG (human glioma) cells; conditions: no added Ca(II); cited from earlier work

Structure (SMILES): O=C([O-])CN(CCN(CC(=O)[O-])CC(=O)O)CCN(CC(=O)[O-])CC(=O)O.[Gd+3] [Gd-DTPA]
- IC50 (cytotoxicity) [1]: 33.1 µg/mL
- r1 relaxivity [2]: 3.1 mM⁻¹ s⁻¹
- toxicity under normal cell culture conditions [3]: no toxicities
